Laboratory results from ChEMBL document CHEMBL1201862, “PubChem BioAssay data set” (2004).
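Values below derive from 48-hour exposures of cells grown in 96-well plates, with endpoints linearly interpolated between the two concentrations bracketing the appropriate inhibition level. GI50 = concentration required for 50% inhibition of growth.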 Activity calls are given as the source filed them. Rule as the data show it: active = GI50 up to about 1.1 µM and inactive = higher.

Legend:
Test in all cases: inhibition of tumour cell growth, NCI panel, 48 h
COLO 205 = test system: COLO 205
A549 = test system: A549
HOP-92 = test system: HOP-92
IGROV-1 = test system: IGROV-1
Malme-3M = test system: Malme-3M
SF-295 = test system: SF-295
ACHN = test system: ACHN
K562 = test system: K562
UACC-62 = test system: UACC-62
HCT-15 = test system: HCT-15
SNB-75 = test system: SNB-75
OVCAR-5 = test system: OVCAR-5
786-0 = test system: 786-0
CCRF-CEM = test system: CCRF-CEM
SK-MEL-5 = test system: SK-MEL-5
SN12C = test system: SN12C
NCI-H522 = test system: NCI-H522
A498 = test system: A498
SK-MEL-2 = test system: SK-MEL-2

| Compound | GI50 (COLO 205) | GI50 (A549) | GI50 (HOP-92) | GI50 (IGROV-1) | GI50 (Malme-3M) | GI50 (SF-295) | GI50 (ACHN) | GI50 (K562) | GI50 (UACC-62) | GI50 (HCT-15) [µM] | GI50 (SNB-75) | GI50 (OVCAR-5) | GI50 (786-0) | GI50 (CCRF-CEM) | GI50 (SK-MEL-5) | GI50 (SN12C) | GI50 (NCI-H522) | GI50 (A498) | GI50 (SK-MEL-2) |
| --- | --- | --- | --- | --- | --- | --- | --- | --- | --- | --- | --- | --- | --- | --- | --- | --- | --- | --- | --- |
| c1ccc2c(c1)ccc1nc3ccccn3c12 | > 100 µM (inactive) | > 100 µM (inactive) | > 100 µM (inactive) | > 100 µM (inactive) | > 100 µM (inactive) | > 100 µM (inactive) | > 100 µM (inactive) | > 100 µM (inactive) | > 100 µM (inactive) | > 100 | > 100 µM (inactive) | > 100 µM (inactive) | > 100 µM (inactive) | > 100 µM (inactive) | 89.7 µM (inactive) | > 100 µM (inactive) | – | – | – |
| N=C(N)NS(=O)(=O)c1ccc(NC(=O)c2cccc3cc4ccccc4nc23)cc1 | > 100 µM (inactive) | > 100 µM (inactive) | – | > 100 µM (inactive) | > 100 µM (inactive) | > 100 µM (inactive) | 93.8 µM (inactive) | 53 µM (inactive) | > 100 µM (inactive) | > 100 | 95.1 µM (inactive) | > 100 µM (inactive) | 67.9 µM (inactive) | 6.56 µM (inactive) | > 100 µM (inactive) | > 100 µM (inactive) | 13.5 µM (inactive) | > 100 µM (inactive) | > 100 µM (inactive) |
| COc1cc2c(cc1NC(=O)c1ccccc1)c1c(n2S(=O)(=O)c2ccccc2)CCN(S(=O)(=O)c2ccccc2)C1 | > 100 µM (inactive) | > 100 µM (inactive) | > 100 µM (inactive) | > 100 µM (inactive) | – | – | > 100 µM (inactive) | > 100 µM (inactive) | > 100 µM (inactive) | > 100 | > 100 µM (inactive) | > 100 µM (inactive) | > 100 µM (inactive) | > 100 µM (inactive) | > 100 µM (inactive) | – | – | > 100 µM (inactive) | > 100 µM (inactive) |
| O=[N+]([O-])c1ccc(C2=Nn3c(nnc3-c3ccccc3)SC2)o1 | 21.4 µM (inactive) | 35.2 µM (inactive) | 13.2 µM (inactive) | 21.8 µM (inactive) | 24.1 µM (inactive) | 17.4 µM (inactive) | 19.4 µM (inactive) | 20.4 µM (inactive) | 19.5 µM (inactive) | 16.1 | 20.4 µM (inactive) | 29.6 µM (inactive) | 20.8 µM (inactive) | 3.6 µM (inactive) | 17.7 µM (inactive) | 15.7 µM (inactive) | – | > 100 µM (inactive) | 20.9 µM (inactive) |
| Cc1cc2nc3c(=O)[nH]c(=O)nc-3n(CC(O)C(O)C(O)CO)c2cc1N (stereo not given) | > 100 µM (inactive) | > 100 µM (inactive) | > 100 µM (inactive) | > 100 µM (inactive) | – | > 100 µM (inactive) | > 100 µM (inactive) | > 100 µM (inactive) | > 100 µM (inactive) | > 100 | > 100 µM (inactive) | – | > 100 µM (inactive) | > 100 µM (inactive) | > 100 µM (inactive) | > 100 µM (inactive) | – | > 100 µM (inactive) | > 100 µM (inactive) |
| C/C=N\N1C(=O)c2ccccc2C1=O | – | > 100 µM (inactive) | > 100 µM (inactive) | > 100 µM (inactive) | > 100 µM (inactive) | > 100 µM (inactive) | > 100 µM (inactive) | > 100 µM (inactive) | > 100 µM (inactive) | > 100 | > 100 µM (inactive) | > 100 µM (inactive) | > 100 µM (inactive) | > 100 µM (inactive) | > 100 µM (inactive) | > 100 µM (inactive) | – | > 100 µM (inactive) | > 100 µM (inactive) |
